In article PMC4428838, “Optimization of Invasion-Specific Effects of Betulin Derivatives on Prostate Cancer Cells through Lead Development” (PLoS ONE, 2015):

What was measured:
Format in all cases: cell-based
LNCaP = assay: Proliferation assay in 2D monolayer culture (number of nuclei, Operetta high-content imager, 72 h); conditions: Homo sapiens, Harmony software, no unit in the table, μM, read-out: Estimated EC50 values for cell proliferation, LNCaP
Description: (§1) To rule out that cytotoxic and antimitotic effects were misinterpreted as anti-invasive, we tested compounds 4, 5, 6, 19 and 20 for inhibition of proliferation and induction of cell death in a 2D monolayer culture (summarized in Fig 6). […] LNCaP cells were more sensitive, with growth inhibition/cytotoxicity starting at 3 μM. The effects on non-transformed, apoptosis-sensitive Ep156T cells were strongest. Here, cytotoxic effects were typically observed already at 0.3–1 μM. […] We further calculated EC50 values for proliferation, apoptosis and cell death for each compound, using the PerkinElmer Harmony software (method validation shown in S7 Fig). The only assay that produced results consistent with those of the betulin derivatives tested in the 2D cell culture model was the proliferation assay (Table 1).
(§2) Fig 6 Cytotoxicity tests performed in 2D monolayer culture. A) Cell proliferation/cell number, B) programmed cell death (apoptosis), and C) number of dead cells were assessed by conventional assays, combined with high-content microscopy (Operetta). […] Proliferation was measured as the total number of nuclei (= cells), apoptosis as ratio of caspase-3 positive versus all cells, and cell death as ethidium homodimer-2 positive nuclei versus all cells.
(§3) Cells were transferred into CellCarrier 384-well plates (PerkinElmer, Waltham, MA, USA) at a density of 1250 cells/well, using Multidrop dispenser (ThermoFisher Scientific, Waltham, MA, USA). After overnight incubation at 37°C experimental, compounds were added with an ATS Acoustic Transfer System (EDC Biosystems, Fremont, CA, USA). For Ep156T cells the protocol was done in reverse with compounds dispensed before seeding of cells. Fluorescent markers were dispensed in culture medium using ATS system after 72-h compound exposure. Nuclei were stained with cell-permeable Hoechst 33342 (Molecular Probes, Eugene, OR, USA), dead cells with ethidium homodimer-2 (Invitrogen, Carlsbad, CA, USA) and apoptotic cells with NucView caspase-3 detection reagent (Essen Bioscience, Ann Arbor, MI, USA). Cells were imaged with Operetta high-content imager (PerkinElmer, Waltham, MA, USA). Proliferation was measured from the number of nuclei (cells), cell death and apoptosis from positive cells/total cells ratio using Harmony image analysis software (PerkinElmer, Waltham, MA, USA). EC50 values were also assessed with the Harmony software.

PC-3 = assay: cells; conditions: Homo sapiens, PC-3; 2D monolayer, 72 h, Harmony software; no unit in the table, μM; read-out: Estimated EC50 values for cell proliferation, PC-3
Description: as §1, §2, §3

EP156T = assay: Proliferation assay in 2D monolayer culture (number of nuclei, Operetta high-content imager, 72 h); conditions: Harmony software, no unit in the table, μM, read-out: Estimated EC50 values for cell proliferation, EP156T
Description: as §1, with “6). A broad range of compound concentrations (1 nM to 30 μM) were used for PC-3, LNCaP and Ep156T cell lines, and analyzed with the PerkinElmer Operetta high-content imager.” for “6).”
as §2, §3

PC-3 cells = assay: Primary 3D screen in Matrigel ECM, morphometric image analysis (AMIDA) of invasion, growth and cell death; conditions: for concentration suppressing the invasive transformation (roundness %): PC-3 spheroids, over 6 days; for anti-invasive effects in 3D culture (in words): 0.03-1 μM
Description: Three standard of care compounds widely used against PrCa were added as controls; namely, the androgen receptor antagonist enzalutamide (MDV3100), the C17α-hydroxylase/C17,20-lyase inhibitor abiraterone (Zytiga), and the classic mitotic inhibitor paclitaxel. Treatments started at day 4, when well-differentiated round acini were established.
The live 3D cell cultures were then stained with reactive dyes Calcein AM to detect living, and ethidium homodimer to detect dead cells. Images (Fig 4A) were acquired with confocal microscope and image data were analyzed with the AMIDA software. The principles of morphometric image analysis are briefly outlined in S2 Fig.
Fig 4 Primary 3D screen. PC-3 cells were cultured in 3D Matrigel ECM for 4 days and treated for 6 days with 25 betulin derivatives (from 2D high throughput screens), DMSO/vehicle control, and three reference compounds. A) Representative maximum intensity projections of confocal microscope stack images for selected compound treatments at 300 nM concentration (5× objective, scale 100 μm). B) Three graphs showing the relative impact on three morphometric parameters for 7 betulin derivatives, DMSO control, and one control compound (paclitaxel). […] C) Hierarchical clustering was done using three morphological parameters derived from PC3 organoids: spheroid size (area), complexity and the number of dead cells. D) Wound healing curves of the two betulin derivatives 4 and 20, highlighting the 50% cut-off level (orange dashed line).
Next, statistical analyses were performed to interpret the complex image data (Fig 4B and 4C). For simplicity, we focused on only three, basic morphologic parameters from the multiparametric AMIDA readout (Fig 4B): 1) Area (indicating growth of organoids), 2) structural Complexity (as a measure of the intensity of invasion), and 3) Relative Area of dead cells within organoids (red signal as a measure of cytoxicity or apoptosis). Area (Size of organoids; Fig 4B, upper panel) was measured as the number of pixels within a segmented structure. […] Shape Complexity (Fig 4B, middle panel) was obtained using the structure size (area) and perimeter (number of border pixels). The more regular the shape of an organoid, the closer it is to a perfect circle, thus minimizing the perimeter relative to object size. […] Deviations from this average (residuals) were interpreted as a measure for the shape complexity of organoids. As a logical lower limit for this measure (represented by a perfect circle), we adjusted the intercept (height level) of the regression line to render all returned residuals as positive numbers.
All 3D cultures were done in growth factor-free Matrigel Basement-membrane Matrix (Corning Inc., New York, NY, USA) using 96-well Angiogenesis μ-plates (ibidi GmbH, Munich, Germany) as described before.[38] “Sandwich” assays in short: bottom wells of cooled Angiogenesis plates were filled with 10 μL 4 mg/mL Matrigel, centrifuged for 20 min 200 g and incubated at 37°C temperature for approximately 30–60 min or until the ECM had polymerized. 1,000–1,500 cells were mixed in 2 mg/mL ECM-medium, and 20 μL of cell suspension was added in each well. The plates were centrifuged for 10 min at 100 g, or until the cells had settled on top of the lower ECM. Finally, the outer wells and side reservoirs were filled with water for humidification, and the culture plates placed into the incubator for 3–4 h or overnight. The following day, 60 μL of cell culture medium were added; refreshed every third day by carefully aspirating the medium.

[1] = PC-3 in 3D Matrigel, 6 days treatment

Row | Compound | EC50 (LNCaP) [µM] | EC50 (PC-3) [µM] | EC50 (EP156T) [µM] | concentration at which anti-invasive effects are seen in 3D (PC-3 cells; [1]) [nM] | concentration suppressing the invasive transformation (roundness %) (PC-3 cells) | effect on morphometric measures (area, complexity, dead cells) (PC-3 cells; PC-3 in 3D Matrigel, paclitaxel at 30 and 100 nM) | anti-invasive effects in 3D culture (in words) (PC-3 cells; [1])
1 | C=C(C)[C@@H]1CC[C@]2(C(=O)O)CC[C@]3(C)C(CCC4[C@@]5(C)Cc6cnoc6C(C)(C)C5CC[C@]43C)C12 (stereo partly shown) [Compound 5] | 64.6 | 9.5 | 0.22 | 300 | over 300 nM |  | 
2 | CC(=O)O[C@H]1C(=O)[C@@]2(C)[C@H]([C@H](OC(=O)c3ccccc3)[C@]3(O)C[C@H](OC(=O)[C@H](O)[C@@H](NC(=O)c4ccccc4)c4ccccc4)C(C)=C1C3(C)C)[C@]1(OC(C)=O)CO[C@@H]1C[C@@H]2O [Paclitaxel, paclitaxel, reference compound] | 0.0006 | 0.0012 | 0.0008 |  |  | strong effect on all morphometric measures | 
3 | CC(C)[C@@H]1CC[C@]2(C(=O)O)CC[C@]3(C)C(CCC4[C@@]5(C)Cc6cnoc6C(C)(C)C5CC[C@]43C)C12 (stereo partly shown) [Compound 4] | 93.1 | 55.9 | 0.2 |  |  |  | 
4 | C=C(C)[C@@H]1CC[C@]2(C(=O)O)CC[C@]3(C)C(CCC4[C@@]5(C)Cc6c[nH]nc6C(C)(C)C5CC[C@]43C)C12 (stereo partly shown) [Compound 6] | 6.4 | 90.8 | 0.21 |  |  |  | even more potent and proved to be specifically anti-invasive
5 | C=C(C)[C@@H]1CC[C@]2(C(=O)O)CC[C@]3(C)C(CCC4[C@@]5(C)Cc6ncccc6C(C)(C)C5CC[C@]43C)C12 (stereo partly shown) [Compound 20] | 132 | 66.9 | 0.19 |  | over 300 nM |  | potently anti-invasive at significantly lower concentrations
6 | C=C(C)[C@@H]1CC[C@]2(C(=O)O)CC[C@]3(C)C(CCC4[C@@]5(C)Cc6cccnc6C(C)(C)C5CC[C@]43C)C12 (stereo partly shown) [Compound 19] | 0.9 | 86.9 | 0.18 |  |  |  | potently anti-invasive at significantly lower concentrations
